Test results taken from patent US20250101028A1, “HETEROCYCLIC COMPOUNDS, COMPOSITIONS THEREOF, AND METHODS OF TREATMENT THEREWITH” (BeiGene, Ltd., priority 2022, published 2025).

target: T1, GST-tagged GDP-loaded KRAS G12V (amino acids 1-169) (Homo sapiens, UniProt P01116, G12V); experiment: KRAS G12V probe displacement assay (TR-FRET); type: binding; settings: displacement of biotinylated probe 2 from GDP-loaded KRAS G12V
T1 construct: GST-tagged GDP-loaded KRAS G12V (amino acids 1-169); made in house; host or cells: E. coli
T1 sequence (P01116 1-169 isoform P01116-2 G12V): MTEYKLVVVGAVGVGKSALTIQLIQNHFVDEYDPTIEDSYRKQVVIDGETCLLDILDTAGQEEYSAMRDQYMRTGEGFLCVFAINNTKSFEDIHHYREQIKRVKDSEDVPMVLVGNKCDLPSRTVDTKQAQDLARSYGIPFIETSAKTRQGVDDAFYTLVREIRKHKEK
Method: KRAS WT and KRAS G12V Probe Displacement Assay
This assay was used to identify compounds which bind to GDP-loaded KRAS protein and are able to displace a biotinylated probe occupying the KRAS binding site. GST-tagged GDP-loaded WT KRAS (amino acids 1-169) and GST-tagged GDP-loaded KRAS G12V (amino acids 1-169) were expressed in E. coli and purified in house. All protein and reaction solutions were prepared in assay buffer containing 50 mM HEPES pH7.5, 50 mM NaCl, 1 mM MgCl2, 1 mM TCEP, 0.01% BSA, and 0.008% Brij-35. Purified WT KRAS (3 nM final concentration) or KRAS G12V protein (2 nM final concentration) was incubated with a 3-fold serially diluted compound in the assay plate (384 well microplate, black, Corning). Plates are incubated at 24° C. for 1 hr. Following the incubation, biotinylated probe 1 (60 nM final assay concentration) for WT KRAS and biotinylated probe 2 (2.5 nM final assay concentration) for KRAS G12V was added to the assay plate, respectively. After 1 hr incubation at 24° C., Mab Anti-GST-Tb cryptate (Cisbio) and Streptavidin-XL665 (Cisbio) were added and further incubated at 24° C. for another 1 hr. The TR-FRET signals (ex337 nm, em665 nm/620 nm) were read on BMG PHERAstar FSX instrument. The inhibition percentage of KRAS protein binding with biotinylated probe in presence of increasing concentrations of compounds was calculated based on the ratio of fluorescence at 665 nm to that at 620 nm. The IC50 value of each compound was calculated from fitting the data to the four-parameter logistic model by Dotmatics.

Row | SMILES | IC50
1 | CC1(C#N)CN(c2nc(OC[C@@]34CCCN3C[C@H](F)C4)nc3c(F)c(-c4ccc(F)c5sc(N)nc45)c(C(F)(F)F)cc23)C1 [Example 42, 1-(7-(2-amino-7-fluorobenzo[d]thiazol-4-yl)-8-fluoro-2-(((2R,7aS)-2-fluorotetrahydro-1H-pyrrolizin-7a(5H)-yl)methoxy)-6-(trifluoromethyl)quinazolin-4-yl)-3-methylazetidine-3-carbonitrile] | 70 nM
2 | Nc1nc2c(-c3c(C(F)(F)F)cc4c(NC5CCCCC5)nc(OC[C@@]56CCCN5C[C@H](F)C6)nc4c3F)ccc(F)c2s1 [Example 27, 4-(4-(cyclohexylamino)-8-fluoro-2-(((2R,7aS)-2-fluorotetrahydro-1H-pyrrolizin-7a(5H)-yl)methoxy)-6-(trifluoromethyl)quinazolin-7-yl)-7-fluorobenzo[d]thiazol-2-amine] | 503 nM
3 | Nc1nc2c(-c3c(C(F)(F)F)cc4c(N5CCC6(CCNC6=O)CC5)nc(OC[C@@]56CCCN5C[C@H](F)C6)nc4c3F)ccc(F)c2s1 [Example 95, 8-(7-(2-amino-7-fluorobenzo[d]thiazol-4-yl)-8-fluoro-2-(((2R,7aS)-2-fluorotetrahydro-1H-pyrrolizin-7a(5H)-yl)methoxy)-6-(trifluoromethyl)quinazolin-4-yl)-2,8-diazaspiro[4.5]decan-1-one] | 2.7 nM
4 | N#CCC1CCN(c2nc(OC[C@@]34CCCN3C[C@H](F)C4)nc3c(F)c(-c4ccc(F)c5sc(N)nc45)c(C(F)(F)F)cc23)CC1 [Example 71, 2-(1-(7-(2-amino-7-fluorobenzo[d]thiazol-4-yl)-8-fluoro-2-(((2R,7aS)-2-fluorotetrahydro-1H-pyrrolizin-7a(5H)-yl)methoxy)-6-(trifluoromethyl)quinazolin-4-yl)piperidin-4-yl)acetonitrile] | 10 nM
5 | CO[C@H]1C[C@H](Nc2nc(OC[C@@]34CCCN3C[C@H](F)C4)nc3c(F)c(-c4ccc(F)c5sc(N)nc45)c(C(F)(F)F)cc23)C1 [Example 14, 7-fluoro-4-(8-fluoro-2-(((2R,7aS)-2-fluorotetrahydro-1H-pyrrolizin-7a(5H)-yl)methoxy)-4-(((trans)-3-methoxycyclobutyl)amino)-6-(trifluoromethyl)quinazolin-7-yl)benzo[d]thiazol-2-amine] | 13 nM
6 | C[C@]1(O)CCCN(c2nc(OC[C@@]34CCCN3C[C@H](F)C4)nc3c(F)c(-c4cc(N)cc(Cl)c4C(F)(F)F)ncc23)C1 [Example 129, (S)-1-(7-(5-amino-3-chloro-2-(trifluoromethyl)phenyl)-8-fluoro-2-(((2R,7aS)-2-fluorotetrahydro-1H-pyrrolizin-7a(5H)-yl)methoxy)pyrido[4,3-d]pyrimidin-4-yl)-3-methylpiperidin-3-ol] | 15 nM
7 | CC[C@@H]1CCCN1c1nc(OC[C@@]23CCCN2C[C@H](F)C3)nc2c(F)c(-c3ccc(F)c4sc(N)nc34)c(C(F)(F)F)cc12 [Example 58, 4-(4-((R)-2-ethylpyrrolidin-1-yl)-8-fluoro-2-(((2R,7aS)-2-fluorotetrahydro-1H-pyrrolizin-7a(5H)-yl)methoxy)-6-(trifluoromethyl)quinazolin-7-yl)-7-fluorobenzo[d]thiazol-2-amine] | 40 nM
8 | Nc1nc2c(-c3c(C(F)(F)F)cc4c(N5CCC6(CC5)CN(CC5CC5)C(=O)O6)nc(OC[C@@]56CCCN5C[C@H](F)C6)nc4c3F)ccc(F)c2s1 [Example 92, 8-(7-(2-amino-7-fluorobenzo[d]thiazol-4-yl)-8-fluoro-2-(((2R,7aS)-2-fluorotetrahydro-1H-pyrrolizin-7a(5H)-yl)methoxy)-6-(trifluoromethyl)quinazolin-4-yl)-3-(cyclopropylmethyl)-1-oxa-3,8-diazaspiro[4.5]decan-2-one] | 2.8 nM
9 | CC1(C)CCCN1c1nc(OC[C@@]23CCCN2C[C@H](F)C3)nc2c(F)c(-c3ccc(F)c4sc(N)nc34)c(C(F)(F)F)cc12 [Example 57, 4-(4-(2,2-dimethylpyrrolidin-1-yl)-8-fluoro-2-(((2R,7aS)-2-fluorotetrahydro-1H-pyrrolizin-7a(5H)-yl)methoxy)-6-(trifluoromethyl)quinazolin-7-yl)-7-fluorobenzo[d]thiazol-2-amine] | 180 nM
10 | CCN1CC2(CCN(c3nc(OC[C@@]45CCCN4C[C@H](F)C5)nc4c(F)c(-c5ccc(F)c6sc(N)nc56)c(C(F)(F)F)cc34)CC2)OC1=O [Example 88, 8-(7-(2-amino-7-fluorobenzo[d]thiazol-4-yl)-8-fluoro-2-(((2R,7aS)-2-fluorotetrahydro-1H-pyrrolizin-7a(5H)-yl)methoxy)-6-(trifluoromethyl)quinazolin-4-yl)-3-ethyl-1-oxa-3,8-diazaspiro[4.5]decan-2-one] | 1.4 nM
11 | CC1CC1Nc1nc(OC[C@@]23CCCN2C[C@H](F)C3)nc2c(F)c(-c3ccc(F)c4sc(N)nc34)c(C(F)(F)F)cc12 (stereo partly drawn) [Example 3, 7-fluoro-4-(8-fluoro-2-(((2R,7aS)-2-fluorotetrahydro-1H-pyrrolizin-7a(5H)-yl)methoxy)-4-((2-methylcyclopropyl)amino)-6-(trifluoromethyl)quinazolin-7-yl)benzo[d]thiazol-2-amine] | 6.2 nM
12 | Cc1nc(N)nc(-c2c(Cl)cc3c(N4CCC(C#N)CC4)nc(OC[C@@]45CCCN4C[C@H](F)C5)nc3c2F)c1C(F)(F)F [Example 107, 1-(7-(2-amino-6-methyl-5-(trifluoromethyl)pyrimidin-4-yl)-6-chloro-8-fluoro-2-(((2R,7aS)-2-fluorotetrahydro-1H-pyrrolizin-7a(5H)-yl)methoxy)quinazolin-4-yl)piperidine-4-carbonitrile] | 73 nM
13 | Nc1cc(Cl)c(C(F)(F)F)c(-c2ncc3c(NC4CC4)nc(OC[C@@]45CCCN4C[C@H](F)C5)nc3c2F)c1 [Example 110, 7-(5-amino-3-chloro-2-(trifluoromethyl)phenyl)-N-cyclopropyl-8-fluoro-2-(((2R,7aS)-2-fluorotetrahydro-1H-pyrrolizin-7a(5H)-yl)methoxy) pyrido[4,3-d]pyrimidin-4-amine] | 17 nM
14 | Nc1nc2c(-c3c(C(F)(F)F)cc4c(N[C@H]5C[C@H]5F)nc(OC[C@@]56CCCN5C[C@H](F)C6)nc4c3F)ccc(F)c2s1 [Example 2, 7-fluoro-4-(8-fluoro-4-(((1S,2R)-2-fluorocyclopropyl)amino)-2-(((2R,7aS)-2-fluorotetrahydro-1H-pyrrolizin-7a(5H)-yl)methoxy)-6-(trifluoromethyl)quinazolin-7-yl)benzo[d]thiazol-2-amine] | 16 nM
15 | N#C[C@@H]1CCCN(c2nc(OC[C@@]34CCCN3C[C@H](F)C4)nc3c(F)c(-c4ccc(F)c5sc(N)nc45)c(C(F)(F)F)cc23)C1 [Example 76, (3R)-1-(7-(2-amino-7-fluorobenzo[d]thiazol-4-yl)-8-fluoro-2-(((2R,7aS)-2-fluorotetrahydro-1H-pyrrolizin-7a(5H)-yl)methoxy)-6-(trifluoromethyl)quinazolin-4-yl)piperidine-3-carbonitrile] | 21 nM
16 | C[C@@H]1CCCN1c1nc(OC[C@@]23CCCN2C[C@H](F)C3)nc2c(F)c(-c3ccc(F)c4sc(N)nc34)c(C(F)(F)F)cc12 [Example 55, 7-fluoro-4-(8-fluoro-2-(((2R,7aS)-2-fluorotetrahydro-1H-pyrrolizin-7a(5H)-yl)methoxy)-4-((R)-2-methylpyrrolidin-1-yl)-6-(trifluoromethyl)quinazolin-7-yl)benzo[d]thiazol-2-amine] | 168 nM
17 | N#C[C@H]1C[C@H](Nc2nc(OC[C@@]34CCCN3C[C@H](F)C4)nc3c(F)c(-c4ccc(F)c5sc(N)nc45)c(C(F)(F)F)cc23)C1 [Example 19, (trans)-3-((7-(2-amino-7-fluorobenzo[d]thiazol-4-yl)-8-fluoro-2-(((2R,7aS)-2-fluorotetrahydro-1H-pyrrolizin-7a(5H)-yl)methoxy)-6-(trifluoromethyl)quinazolin-4-yl)amino)cyclobutane-1-carbonitrile] | 9.9 nM
18 | CCC1(O)CCCN(c2nc(OC[C@@]34CCCN3C[C@H](F)C4)nc3c(F)c(-c4cc(N)cc(Cl)c4C(F)(F)F)ncc23)C1 (stereo partly drawn) [Example 130, 1-(7-(5-amino-3-chloro-2-(trifluoromethyl)phenyl)-8-fluoro-2-(((2R,7aS)-2-fluorotetrahydro-1H-pyrrolizin-7a(5H)-yl)methoxy)pyrido[4,3-d]pyrimidin-4-yl)-3-ethylpiperidin-3-ol] | 32 nM
19 | Nc1cc(Cl)c(C(F)(F)F)c(-c2ncc3c(N4CCC(O)CC4)nc(OC[C@@]45CCCN4C[C@H](F)C5)nc3c2F)c1 [Example 127, 1-(7-(5-amino-3-chloro-2-(trifluoromethyl)phenyl)-8-fluoro-2-(((2R,7aS)-2-fluorotetrahydro-1H-pyrrolizin-7a(5H)-yl)methoxy)pyrido[4,3-d]pyrimidin-4-yl)piperidin-4-ol] | 21 nM
